Results: US9062071B2, “Substituted piperidines as HDM2 inhibitors” (Merck Sharp & Dohme Corp, priority 2011, dated 2015)

Molecular target: HDM2 protein (Homo sapiens, UniProt Q00987)
Test: fluorescence polarization screening assay (FP IC50)
Format: binding
Details: class symbols
Description: The compounds were evaluated to determine activity at the HDM2 protein by known methods such as the fluorescence polarization screening assay that measures the inhibitory concentration that achieves 50% of maximal activity (FP IC50) and the dissociation constant for inhibitor binding (FP Ki). [Zhang et al., J. Analytical Biochemistry 331: 138-146 (2004)].

Sequence of HDM2 protein (Q00987 whole entry): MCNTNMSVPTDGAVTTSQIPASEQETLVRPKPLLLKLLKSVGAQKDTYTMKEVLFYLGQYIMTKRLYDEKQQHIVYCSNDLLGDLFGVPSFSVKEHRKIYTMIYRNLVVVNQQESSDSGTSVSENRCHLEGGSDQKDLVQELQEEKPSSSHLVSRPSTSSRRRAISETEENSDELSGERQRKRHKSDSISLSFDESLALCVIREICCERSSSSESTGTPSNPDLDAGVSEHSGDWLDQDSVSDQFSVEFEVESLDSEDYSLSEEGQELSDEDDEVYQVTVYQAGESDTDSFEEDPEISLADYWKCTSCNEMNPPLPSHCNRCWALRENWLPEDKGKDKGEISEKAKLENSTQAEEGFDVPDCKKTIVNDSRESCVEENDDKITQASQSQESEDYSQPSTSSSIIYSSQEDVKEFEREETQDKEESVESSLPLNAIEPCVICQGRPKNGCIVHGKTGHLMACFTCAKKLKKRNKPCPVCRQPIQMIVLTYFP

| IC50 [nM] | Compound |
| --- | --- |
| 1 to 100 | CCC[C@H]1N(C(=O)c2ncccc2C(F)(F)F)CCC[C@@]1(Oc1csc(C(F)(F)F)c1)C(=O)N1Cc2ccc(Cl)cc2C[C@@H]1C(=O)N1CCC[C@@H](O)C1 [Compound A170, (3R)-1-{[(3R)-6-chloro-2-{[(2R,3S)-2-propyl-1-{[3-(trifluoromethyl)pyridin-2-yl]carbonyl}-3-{[5-(trifluoromethyl)thiophen-3-yl]oxy}piperidin-3-yl]carbonyl}-1,2,3,4-tetrahydroisoquinolin-3-yl]carbonyl}piperidin-3-ol] |
| 1 to 100 | CCC[C@H]1N(C(=O)c2ncccc2C(F)(F)F)CCC[C@@]1(Oc1csc(C(F)(F)F)c1)C(=O)N1CCc2cc(F)ccc2C1C(=O)N1CCN(CCO)CC1 (stereo partly drawn) [Compound A93, 2-{4-[(6-fluoro-2-{[(2R,3S)-2-propyl-1-{[3-(trifluoromethyl)pyridin-2-yl]carbonyl}-3-{[5-(trifluoromethyl)thiophen-3-yl]oxy}piperidin-3-yl]carbonyl}-1,2,3,4-tetrahydroisoquinolin-1-yl)carbonyl]piperazin-1-yl}ethanol] |
| 101 to 20000 | CCC[C@H]1N(C(=O)c2ncccc2C(F)(F)F)CCC[C@@]1(Oc1csc(C(F)(F)F)c1)C(=O)N1CCc2cc(Cl)ccc2C1CC(C)C (stereo partly drawn) [Compound A176, 6-chloro-1-(2-methylpropyl)-2-{[(2R,3S)-2-propyl-1-{[3-(trifluoromethyl)pyridin-2-yl]carbonyl}-3-{[5-(trifluoromethyl)thiophen-3-yl]oxy}piperidin-3-yl]carbonyl}-1,2,3,4-tetrahydroisoquinoline] |
| 1 to 100 | CCC[C@H]1N(C(=O)c2ncccc2C(F)(F)F)CCC[C@@]1(Oc1csc(C(F)(F)F)c1)C(=O)N1Cc2sc(Br)cc2C[C@H]1C(=O)NS(C)(=O)=O [Compound A175, (5S)-2-bromo-N-(methylsulfonyl)-6-{[(2R,3S)-2-propyl-1-{[3-(trifluoromethyl)pyridin-2-yl]carbonyl}-3-{[5-(trifluoromethyl)thiophen-3-yl]oxy}piperidin-3-yl]carbonyl}-4,5,6,7-tetrahydrothieno[2,3-c]pyridine-5-carboxamide] |
| 101 to 20000 | CCC[C@H]1N(C(=O)c2ncccc2C(F)(F)F)CCC[C@@]1(Oc1csc(C(F)(F)F)c1)C(=O)N1CCc2cc(Cl)ccc2C1CC(C(=O)O)C(C)C (stereo partly drawn) [Compound A180, 2-[(6-chloro-2-{[(2R,3S)-2-propyl-1-{[3-(trifluoromethyl)pyridin-2-yl]carbonyl}-3-{[5-(trifluoromethyl)thiophen-3-yl]oxy}piperidin-3-yl]carbonyl}-1,2,3,4-tetrahydroisoquinolin-1-yl)methyl]-3-methylbutanoic acid] |
| 1 to 100 | CCC[C@H]1N(C(=O)c2ncccc2C(F)(F)F)CCC[C@@]1(Oc1csc(C(F)(F)F)c1)C(=O)N1CCc2cc(Cl)ccc2C1CC(=O)N1CCNC(=O)C1 (stereo partly drawn) [Compound A81, 4-[(6-chloro-2-{[(2R,3S)-2-propyl-1-{[3-(trifluoromethyl)pyridin-2-yl]carbonyl}-3-{[5-(trifluoromethyl)thiophen-3-yl]oxy}piperidin-3-yl]carbonyl}-1,2,3,4-tetrahydroisoquinolin-1-yl)acetyl]piperazin-2-one] |
| 1 to 100 | CCC[C@H]1N(C(=O)c2ncccc2C(F)(F)F)CCC[C@@]1(Oc1csc(C(F)(F)F)c1)C(=O)N1CCc2cc(Cl)ccc2C1CC(=O)N1CCNC(=O)C1 (stereo partly drawn) [Compound A84, 4-[(6-chloro-2-{[(2R,3S)-2-propyl-1-{[3-(trifluoromethyl)pyridin-2-yl]carbonyl}-3-{[5-(trifluoromethyl)thiophen-3-yl]oxy}piperidin-3-yl]carbonyl}-1,2,3,4-tetrahydroisoquinolin-1-yl)acetyl]piperazin-2-one] |
| 1 to 100 | CCC[C@H]1N(C(=O)c2ncccc2C(F)(F)F)CCC[C@@]1(Oc1csc(C(F)(F)F)c1)C(=O)N1Cc2sc(Cl)cc2CC1C(=O)O (stereo partly drawn) [Compound A174, 2-chloro-6-{[(2R,3S)-2-propyl-1-{[3-(trifluoromethyl)pyridin-2-yl]carbonyl}-3-{[5-(trifluoromethyl)thiophen-3-yl]oxy}piperidin-3-yl]carbonyl}-4,5,6,7-tetrahydrothieno[2,3-c]pyridine-5-carboxylic acid] |
| 101 to 20000 | CCC[C@H]1N(C(=O)c2ncccc2C(F)(F)F)CCC[C@@]1(Oc1csc(C(F)(F)F)c1)C(=O)N1CCc2ccc(OC)cc2C1 [Compound A140, 7-methoxy-2-{[(2R,3S)-2-propyl-1-{[3-(trifluoromethyl)pyridin-2-yl]carbonyl}-3-{[5-(trifluoromethyl)thiophen-3-yl]oxy}piperidin-3-yl]carbonyl}-1,2,3,4-tetrahydroisoquinoline] |

Second part, the compound before the results:

| Compound | IC50 [nM] |
| --- | --- |
| CCC[C@H]1N(C(=O)c2ncccc2C(F)(F)F)CCC[C@@]1(Oc1csc(C(F)(F)F)c1)C(=O)N1CCc2cc(Cl)ccc2C1C(N)=O (stereo partly drawn) [Compound A75, 6-chloro-2-{[(2R,3S)-2-propyl-1-{[3-(trifluoromethyl)pyridin-2-yl]carbonyl}-3-{[5-(trifluoromethyl)thiophen-3-yl]oxy}piperidin-3-yl]carbonyl}-1,2,3,4-tetrahydroisoquinoline-1-carboxamide] | 1 to 100 |
| CCC[C@H]1N(C(=O)c2ncccc2C(F)(F)F)CCC[C@@]1(Oc1csc(C(F)(F)F)c1)C(=O)N1CCc2sc(Cl)cc2C1C(=O)O (stereo partly drawn) [Compound A13, 2-chloro-5-{[(2R,3S)-2-propyl-1-{[3-(trifluoromethyl)pyridin-2-yl]carbonyl}-3-{[5-(trifluoromethyl)thiophen-3-yl]oxy}piperidin-3-yl]carbonyl}-4,5,6,7-tetrahydrothieno[3,2-c]pyridine-4-carboxylic acid] | 1 to 100 |
| CCC[C@H]1N(C(=O)c2ncccc2C(F)(F)F)CCC[C@@]1(Oc1csc(C(F)(F)F)c1)C(=O)N1CCc2cc(F)ccc2C1CCCO (stereo partly drawn) [Compound A54, 3-(6-fludro-2-{[(2R,3S)-2-propyl-1-{[3-(trifluoromethyl)pyridin-2-yl]carbonyl}-3-{[5-(trifluoromethyl)thiophen-3-yl]oxy}piperidin-3-yl]carbonyl}-1,2,3,4-tetrahydroisoquinolin-1-yl)propan-1-ol] | 101 to 20000 |
| CCC[C@H]1N(C(=O)c2ncccc2C(F)(F)F)CCC[C@@]1(Oc1csc(C(F)(F)F)c1)C(=O)N1CCc2cc(F)ccc2C1CCC(=O)NCc1nn[nH]n1 (stereo partly drawn) [Compound A59, 3-(6-fluoro-2-{[(2R,3S)-2-propyl-1-{[3-(trifluoromethyl)pyridin-2-yl]carbonyl}-3-{[5-(trifluoromethyl)thiophen-3-yl]oxy}piperidin-3-yl]carbonyl}-1,2,3,4-tetrahydroisoquinolin-1-yl)-N-(2H-tetrazol-5-ylmethyl)propanamide] | 1 to 100 |
| CCC[C@H]1N(C(=O)c2ncccc2C(F)(F)F)CCC[C@@]1(Oc1csc(C(F)(F)F)c1)C(=O)N1CCc2cc(F)ccc2C1CCCO (stereo partly drawn) [Compound A51, 3-(6-fluoro-2-{[(2R,3S)-2-propyl-1-{[3-(trifluoromethyl)pyridin-2-yl]carbonyl}-3-{[5-(trifluoromethyl)thiophen-3-yl]oxy}piperidin-3-yl]carbonyl}-1,2,3,4-tetrahydroisoquinolin-1-yl)propan-1-ol] | 1 to 100 |
| CCC[C@H]1N(C(=O)c2ncccc2C(F)(F)F)CCC[C@@]1(Oc1csc(C(F)(F)F)c1)C(=O)N1CCc2sc(Cl)cc2C1CCC(=O)NS(C)(=O)=O (stereo partly drawn) [Compound A37, 3-(2-chloro-5-{[(2R,3S)-2-propyl-1-{[3-(trifluoromethyl)pyridin-2-yl]carbonyl}-3-{[5-(trifluoromethyl)thiophen-3-yl]oxy}piperidin-3-yl]carbonyl}-4,5,6,7-tetrahydrothieno[3,2-c]pyridin-4-yl)-N-(methylsulfonyl) propanamide] | 1 to 100 |
| CCC[C@H]1N(C(=O)c2ncccc2C(F)(F)F)CCC[C@@]1(Oc1csc(C(F)(F)F)c1)C(=O)N1CCc2cc(Cl)ccc2C1CCC(=O)NS(C)(=O)=O (stereo partly drawn) [Compound A63, 3-(6-chloro-2-{[(2R,3S)-2-propyl-1-{[3-(trifluoromethyl)pyridin-2-yl]carbonyl}-3-{[5-(trifluoromethyl)thiophen-3-yl]oxy}piperidin-3-yl]carbonyl}-1,2,3,4-tetrahydroisoquinolin-1-yl)-N-(methylsulfonyl) propanamide] | 1 to 100 |
| CCC[C@H]1N(C(=O)c2ncccc2C(F)(F)F)CCC[C@@]1(Oc1csc(C(F)(F)F)c1)C(=O)N1CCc2cc(F)ccc2C1CCC(=O)NCc1nn[nH]n1 (stereo partly drawn) [Compound A60, 3-(6-fluoro-2-{[(2R,3S)-2-propyl-1-{[3-(trifluoromethyl)pyridin-2-yl]carbonyl}-3-{[5-(trifluoromethyl)thiophen-3-yl]oxy}piperidin-3-yl]carbonyl}-1,2,3,4-tetrahydroisoquinolin-1-yl)-N-(2H-tetrazol-5-ylmethyl)propanamide] | 1 to 100 |
| CCC[C@H]1N(C(=O)c2ncccc2C(F)(F)F)CCC[C@@]1(Oc1csc(C(F)(F)F)c1)C(=O)N1CCc2cc(Cl)ccc2C1CC(C)(C)C(=O)O (stereo partly drawn) [Compound A65, 3-(6-chloro-2-{[(2R,3S)-2-propyl-1-{[3-(trifluoromethyl)pyridin-2-yl]carbonyl}-3-{[5-(trifluoromethyl)thiophen-3-yl]oxy}piperidin-3-yl]carbonyl}-1,2,3,4-tetrahydroisoquinolin-1-yl)-2,2-dimethylpropanoic acid] | 1 to 100 |
| CCC[C@H]1N(C(=O)c2ncccc2C(F)(F)F)CCC[C@@]1(Oc1csc(C(F)(F)F)c1)C(=O)N1CCc2cc(Cl)ccc2C1C#N (stereo partly drawn) [Compound A76, 6-chloro-2-{[(2R,3S)-2-propyl-1-{[3-(trifluoromethyl)pyridin-2-yl]carbonyl}-3-{[5-(trifluoromethyl)thiophen-3-yl]oxy}piperidin-3-yl]carbonyl}-1,2,3,4-tetrahydroisoquinoline-1-carbonitrile] | 101 to 20000 |
| CCC[C@H]1N(C(=O)c2ncccc2C(F)(F)F)CCC[C@@]1(Oc1csc(C(F)(F)F)c1)C(=O)N1CCc2sc(Cl)cc2C1C(=O)NC (stereo partly drawn) [Compound A34, 2-chloro-N-methyl-5-{[(2R,3S)-2-propyl-1-{[3-(trifluoromethyl)pyridin-2-yl]carbonyl}-3-{[5-(trifluoromethyl)thiophen-3-yl]oxy}piperidin-3-yl]carbonyl}-4,5,6,7-tetrahydrothieno[3,2-c]pyridine-4-carboxamide] | 101 to 20000 |
